For one assay, the target named is MDM2-p53 interaction (Homo sapiens (Human), UniProt Q00987). The settings on record: for inhibition at 0.001 µM: read-out: MDM2 % inhibition @0.0010.
A further assay deals with SN40R2 cells. The experiment in a line: Protocol B: SN40R2 CellTiter-Glo luminescent cell viability assay. The settings on record: for inhibition at 10 µM: read-out: SN40R2 % inhibition at 10. A general note: In ATP-based viability assays light output follows the ATP content of the culture.
In the next assay the test system is SJSA-1 cells. Nature of the assay: Protocol B: SJSA-1 CellTiter-Glo luminescent cell viability assay.
Where [1] appears, read: Homo sapiens, SJSA-1, read-out: SJSA1 IC50 (μM), Protocol B, SJSA-1.
Setting [2] is: read-out: SJSA1 IC50, Protocol B, SJSA-1.

SMILES strings stand for the structures. Where two headings read alike, the source gives them in different places.

The term inhibition denotes the share of the control response that was lost under treatment. Broadly, the IC50 is the concentration at which inhibition is half-maximal.

Sequence of MDM2-p53 interaction (Q00987 whole entry): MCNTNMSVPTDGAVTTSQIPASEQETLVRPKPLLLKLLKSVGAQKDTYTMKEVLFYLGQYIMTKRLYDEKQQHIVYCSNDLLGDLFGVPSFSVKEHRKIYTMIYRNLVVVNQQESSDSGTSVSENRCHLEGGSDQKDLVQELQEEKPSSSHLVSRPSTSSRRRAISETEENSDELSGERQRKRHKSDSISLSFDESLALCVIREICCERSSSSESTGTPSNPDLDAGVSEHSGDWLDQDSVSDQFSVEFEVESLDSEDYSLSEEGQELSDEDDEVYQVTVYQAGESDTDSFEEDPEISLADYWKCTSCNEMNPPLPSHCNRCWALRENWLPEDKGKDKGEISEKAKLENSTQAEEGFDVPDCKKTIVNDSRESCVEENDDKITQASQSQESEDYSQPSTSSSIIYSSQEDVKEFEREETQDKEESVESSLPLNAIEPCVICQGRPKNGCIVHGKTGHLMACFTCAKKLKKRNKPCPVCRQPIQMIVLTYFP
Method for SJSA-1 cells: Protocol B: SJSA-1 and SN40R2 Assays
The CellTiter-Glo® Luminescent Cell Viability Assay is a homogeneous method to determine the number of viable cells in culture based on quantitation of the ATP present, which signals the presence of metabolically active cells. […] 100 μl of CTG reagent (Promega #G7573) was added to all wells and luminescence was measured on the topcount. The EC50 values were determined from a sigmoidal 4 parameter curve fit using XLfit in conjunction with Activity Base (IDBS; Guildford, Surrey, UK).

Regarding `CO[C@]1(c2ccc(Cl)cc2)c2ccc(C(C)(O)C(=O)NCCN(C)C)cc2C(=O)N1Cc1ccc(Cl)cn1` (single isomer, unassigned) [Example 149], on MDM2-p53 interaction (at 1.0 μM), the “MDM2 % at stated concentration” value was 53%@1.0.

As to `CO[C@]1(c2ccc(Cl)cc2)c2ccc(C(C)(O)C(=O)NCCN(C)C)cc2C(=O)N1Cc1ccc(Cl)cn1` (single isomer, unassigned) [Example 150], on MDM2-p53 interaction (at 0.10 μM), the “MDM2 % at stated concentration” value was 49%@0.10.

As to `CC(=O)N1CCC(C(C)(O)c2cc(F)c3c(c2)C(=O)N(Cc2ccc(Cl)cn2)[C@@]3(OCC2(C#N)CC2)c2ccc(Cl)cc2)CC1` (single isomer, unassigned) [Example 301], the “MDM2 % at stated concentration” value at MDM2-p53 interaction worked out at 75%@0.0010.

Turning to `Cn1cc(C(C)(O)c2cc(F)c3c(c2)C(=O)N(Cc2ccc(Cl)c[n+]2[O-])[C@@]3(OCC2(CO)CC2)c2ccc(Cl)cc2)cn1` (single isomer, unassigned) [Example 407], at MDM2-p53 interaction, the “MDM2 % at stated concentration” value amounted to 62%@0.0010.

With `CO[C@]1(c2ccc(Cl)cc2)c2c(F)cc(C(C)(O)c3cnn(C4CN(C(=O)OC(C)(C)C)C4)c3)cc2C(=O)N1Cc1ccc(Cl)cn1` (single isomer, unassigned) [Example 458], the inhibition at 0.01 µM on MDM2-p53 interaction (read-out: MDM2 % inhibition @0.010) stood at 44%.

Regarding `CCC(O)(c1cc(F)c2c(c1)C(=O)N(Cc1ccc(C#N)cn1)[C@@]2(OC[C@@H](C)O)c1ccc(Cl)cc1)C1(F)CCOCC1` (single isomer, unassigned) [Example 497], the inhibition at 0.001 µM on MDM2-p53 interaction was determined as 83%.

For `CCC(O)(c1cc(F)c2c(c1)C(=O)N(Cc1ccc(C#N)cn1)[C@@]2(OCCO)c1ccc(Cl)cc1)C1(F)CCOCC1` (single isomer, unassigned) [Example 499], the inhibition at 0.001 µM on MDM2-p53 interaction came out at 68%.

`CC(C)(O)c1cc(F)c2c(c1)C(=O)N(Cc1ccc(Cl)cn1)[C@@]2(OCC1(CNCCO)CC1)c1ccc(Cl)cc1` [Example 326, (3R)-3-(4-chlorophenyl)-2-[(5-chloropyridin-2-yl)methyl]-4-fluoro-3-[(1-{[(2-hydroxyethyl)amino]methyl}cyclopropyl)methoxy]-6-(2-hydroxypropan-2-yl)-2,3-dihydro-1H-isoindol-1-one]: the “MDM2 % at stated concentration” value on MDM2-p53 interaction (at 0.030 μM) came to 50%@0.030.

In the case of `CC(C)(O)c1cc(F)c2c(c1)C(=O)N([C@H](c1ccc(Cl)cn1)C(O)CO)[C@@]2(OCC1(O)CC1)c1ccc(Cl)cc1` (stereo partly drawn) [Example 331, (3R)-3-(4-Chlorophenyl)-2-[(1R)-1-(5-chloropyridin-2-yl)-2,3-dihydroxypropyl]-4-fluoro-3-[(1-hydroxycyclopropyl)methoxy]-6-(2-hydroxypropan-2-yl)-2,3-dihydro-1H-isoindol-1-one], the “MDM2 % at stated concentration” value at MDM2-p53 interaction (at 0.030 μM) was 49%@0.030.

As to `Cn1cc(C(O)(c2cc(F)c3c(c2)C(=O)N(Cc2ccc(C#N)cn2)[C@@]3(O[C@H]2CCOC2)c2ccc(Cl)cc2)C(F)(F)F)cn1` (stereo partly drawn) [Example 371, 6-{[(1R)-1-(4-chlorophenyl)-7-fluoro-3-oxo-1-[(3S)-oxolan-3-yloxy]-5-[2,2,2-trifluoro-1-hydroxy-1-(1-methyl-1H-pyrazol-4-yl)ethyl]-2,3-dihydro-1H-isoindol-2-yl]methyl}pyridine-3-carbonitrile], the inhibition at 0.03 µM on MDM2-p53 interaction (read-out: MDM2 % inhibition @0.030) was found to be 43%.

For the molecule `CCC(O)(c1cc(F)c2c(c1)C(=O)N(Cc1ccc(C#N)cn1)[C@@]2(OCCOC)c1ccc(Cl)cc1)c1cn(C)cn1` (stereo partly drawn) [Example 429, 6-{[(1R)-1-(4-chlorophenyl)-7-fluoro-5-[1-hydroxy-1-(1-methyl-1H-imidazol-4-yl)propyl]-1-(2-methoxyethoxy)-3-oxo-2,3-dihydro-1H-isoindol-2-yl]methyl}pyridine-3-carbonitrile], the inhibition at 0.1 µM at MDM2-p53 interaction (read-out: MDM2 % inhibition @0.10) is 65%.

On to `CCC(O)(c1cc(F)c2c(c1)C(=O)N(Cc1ccc(C#N)cn1)[C@@]2(OCC1(F)COC1)c1ccc(Cl)cc1)c1cn(C)cn1` (stereo partly drawn) [Example 435, 6-{[(1R)-1-(4-chlorophenyl)-7-fluoro-1-[(3-fluorooxetan-3-yl)methoxy]-5-[1-hydroxy-1-(1-methyl-1H-imidazol-4-yl)propyl]-3-oxo-2,3-dihydro-1H-isoindol-2-yl]methyl}pyridine-3-carbonitrile], for which the inhibition at 10 µM in the assay with SN40R2 cells came to 0%. For the same molecule, in the assay with SJSA-1 cells (setting [1]), the IC50 worked out at 0.015 µM.

With `[2H]C([2H])(O)C1(C([2H])([2H])O[C@]2(c3ccc(Cl)cc3)c3c(F)cc(C(O)(CC)c4cn(C)cn4)cc3C(=O)N2Cc2ccc(C#N)cn2)CC1` (stereo partly drawn) [Example 439, 6-{[(1R)-1-(4-chlorophenyl)-7-fluoro-1-({1-[hydroxy(^2H2)methyl]cyclopropyl}(^2H2)methoxy)-5-[1-hydroxy-1-(1-methyl-1H-imidazol-4-yl)propyl]-3-oxo-2,3-dihydro-1H-isoindol-2-yl]methyl}pyridine-3-carbonitrile], the inhibition at 10 µM in the assay with SN40R2 cells came to 3%. In addition, the IC50 with SJSA-1 cells (setting [2]) is 0.03 µM.

With `[2H]C([2H])(O)C1(C([2H])([2H])O[C@]2(c3ccc(Cl)cc3)c3c(F)cc(C(C)(C)C4(F)CCOCC4)cc3C(=O)N2Cc2ncc(Cl)cn2)CC1` [Example 447, (3R)-3-(4-Chlorophenyl)-2-[(5-chloropyrimidin-2-yl)methyl]-4-fluoro-6-[1-(4-fluorooxan-4-yl)-1-hydroxyethyl]-3-({1-[hydroxy(^2H2)methyl]cyclopropyl}(^2H2)methoxy)-2,3-dihydro-1H-isoindol-1-one], the inhibition at 10 µM with SN40R2 cells was 10%. Further, the IC50 in the assay on SJSA-1 cells (setting [1]) turned out to be 0.011 µM.

In the case of `CO[C@]1(c2ccc(Cl)cc2)c2c(F)cc(C(C)(O)c3cnn(C4CN(C(=O)OC(C)(C)C)C4)c3)cc2C(=O)N1Cc1ccc(Cl)cn1` (stereo partly drawn) [Example 457, tert-Butyl 3-(4-{1-[(1R)-1-(4-chlorophenyl)-2-[(5-chloropyridin-2-yl)methyl]-7-fluoro-1-methoxy-3-oxo-2,3-dihydro-1H-isoindol-5-yl]-1-hydroxyethyl}-1H-pyrazol-1-yl)azetidine-1-carboxylate], the inhibition at 0.3 µM on MDM2-p53 interaction (read-out: MDM2 % inhibition @0.30) amounted to 53%.

Regarding `CCC(O)(c1cc(F)c2c(c1)C(=O)N(Cc1ncc(Cl)cn1)[C@@]2(O[C@H]1C[C@@H](O)C1)c1ccc(Cl)cc1)c1cn(C)cn1` (stereo partly drawn) [Example 464, (3R)-3-(4-chlorophenyl)-2-[(5-chloropyrimidin-2-yl)methyl]-4-fluoro-6-[1-hydroxy-1-(1-methyl-1H-imidazol-4-yl)propyl]-3-[cis-3-hydroxycyclobutoxy]-2,3-dihydro-1H-isoindol-1-one], the inhibition at 10 µM with SN40R2 cells was determined as 46%. The IC50 in the assay with SJSA-1 cells (setting [1]) was 0.18 µM.

As to `Cn1cnc(C(C)(O)c2cc(F)c3c(c2)C(=O)N(Cc2ncc(C#N)cn2)[C@@]3(OCC2(F)COC2)c2ccc(Cl)cc2)c1` (stereo partly drawn) [Example 468, 2-{[(1R)-1-(4-chlorophenyl)-7-fluoro-1-[(3-fluorooxetan-3-yl)methoxy]-5-[1-hydroxy-1-(1-methyl-1H-imidazol-4-yl)ethyl]-3-oxo-2,3-dihydro-1H-isoindol-2-yl]methyl}pyrimidine-5-carbonitrile], in the assay on SN40R2 cells, the inhibition at 10 µM amounted to 2%. The IC50 in the assay on SJSA-1 cells (setting [1]) worked out at 0.48 µM.

In the case of `CCC(O)(c1cc(F)c2c(c1)C(=O)N(Cc1ncc(C#N)cn1)[C@@]2(OCC1(F)COC1)c1ccc(Cl)cc1)c1cn(C)cn1` (stereo partly drawn) [Example 470, 2-{[(1R)-1-(4-chlorophenyl)-7-fluoro-1-[(3-fluorooxetan-3-yl)methoxy]-5-[1-hydroxy-1-(1-methyl-1H-imidazol-4-yl)propyl]-3-oxo-2,3-dihydro-1H-isoindol-2-yl]methyl}pyrimidine-5-carbonitrile], the inhibition at 10 µM in the assay on SN40R2 cells was found to be 3%. Besides, the IC50 with SJSA-1 cells (setting [2]) worked out at 0.1 µM.

Take `CCC(O)(c1cc(F)c2c(c1)C(=O)N(Cc1ncc(C#N)cn1)[C@@]2(O[C@H]1CCOC1)c1ccc(Cl)cc1)c1ccn(C)n1` (stereo partly drawn) [Example 490, 2-{[(1R)-1-(4-chlorophenyl)-7-fluoro-5-[1-hydroxy-1-(1-methyl-1H-pyrazol-3-yl)propyl]-3-oxo-1-[(3S)-oxolan-3-yloxy]-2,3-dihydro-1H-isoindol-2-yl]methyl}pyrimidine-5-carbonitrile]: in the assay with SN40R2 cells, the inhibition at 10 µM was found to be 0%. Moreover, the IC50 with SJSA-1 cells (setting [2]) stood at 0.27 µM.

As to `CC[C@@](O)(c1cc(F)c2c(c1)C(=O)N(Cc1ncc(Cl)cn1)[C@@]2(OCCO)c1ccc(Cl)cc1)C1(F)CCOCC1` [Example 501, (3R)-3-(4-chlorophenyl)-2-[(5-chloropyrimidin-2-yl)methyl]-4-fluoro-6-[(1R)-1-(4-fluorooxan-4-yl)-1-hydroxypropyl]-3-(2-hydroxyethoxy)-2,3-dihydro-1H-isoindol-1-one], the inhibition at 3 µM in the assay with SN40R2 cells (read-out: SN40R2 % inhibition at 3) was 8%. Also, the IC50 with SJSA-1 cells (setting [1]) turned out to be 0.022 µM.

Consider `CC[C@@](O)(c1cc(F)c2c(c1)C(=O)N(Cc1ncc(C#N)cn1)[C@@]2(OCCO)c1ccc(Cl)cc1)C1(F)CCOCC1` [Example 509, 2-{[(1R)-1-(4-chlorophenyl)-7-fluoro-5-[(1R)-1-(4-fluorooxan-4-yl)-1-hydroxypropyl]-1-(2-hydroxyethoxy)-3-oxo-2,3-dihydro-1H-isoindol-2-yl]methyl}pyrimidine-5-carbonitrile], for which, in the assay with SN40R2 cells, the inhibition at 10 µM is 6%. The IC50 in the assay with SJSA-1 cells (setting [1]) worked out at 0.042 µM.

On to `CCC(O)(c1cc(F)c2c(c1)C(=O)N(Cc1ncc(C#N)cn1)[C@@]2(OC[C@@H](C)O)c1ccc(Cl)cc1)[C@H]1CC[C@H](O)CC1` (stereo partly drawn) [Example 512, 2-{[(1R)-1-(4-chlorophenyl)-7-fluoro-5-{1-hydroxy-1-[trans-4-hydroxycyclohexyl]propyl}-1-[(2R)-2-hydroxypropoxy]-3-oxo-2,3-dihydro-1H-isoindol-2-yl]methyl}pyrimidine-5-carbonitrile], for which, in the assay on SN40R2 cells, the inhibition at 10 µM stood at 5%. For the same molecule, in the assay on SJSA-1 cells (setting [1]), the IC50 came out at 0.025 µM.

On to `CC(O)(c1cc(F)c2c(c1)C(=O)N(Cc1ncc(Cl)cn1)[C@@]2(OCCO)c1ccc(Cl)cc1)C1(F)CCOCC1` (stereo partly drawn) [Example 578, (3R)-3-(4-chlorophenyl)-2-[(5-chloropyrimidin-2-yl)methyl]-4-fluoro-6-[1-(4-fluorooxan-4-yl)-1-hydroxyethyl]-3-(2-hydroxyethoxy)-2,3-dihydro-1H-isoindol-1-one], for which the inhibition at 10 µM with SN40R2 cells was found to be 4%. For the same molecule, the IC50 with SJSA-1 cells (setting [1]) is 0.12 µM.

(Values after patent US11236047B2 (ASTEX THERAPEUTICS LIMITED, priority 2017, dated 2022).)
